Active and inactive are the calls of the source. The calls are words filed in the database; no cut-off is given here.
Tests used:
Mytilus edulis [1] = assay: Antifouling activity in Mytilus edulis galloprovincialis assessed as foot contraction at 100 ppm; format: functional
Mytilus edulis [2] = assay: Antifouling activity in Mytilus edulis galloprovincialis assessed as foot contraction at <10 ppm; format: functional, organism-based

Structure (SMILES): C=C1[C@@H](C)C[C@H]2C[C@]1(C)CCC1=CC(=O)O[C@@]12O
- Activity (Mytilus edulis [1]): 100%
- Activity (Mytilus edulis [2]): inactive
